# Tests used:
# [1] = Mean elimination half-life of simvastatin following administration of reference product Zocor 80 mg tablet in healthy human; type: ADME, organism-based; settings: plasma, po
# [2] = Absorption of simvastatin following oral administration of simvastatin in human; type: ADME, organism-based; settings: in vivo
# Homo sapiens [3] = test: Plasma protein binding of simvastatin following oral dose of simvastatin at […] level in human; type: organism-based; set-up: dose 40 mg, dosed compound id 2.4681e+06, dosed compound name, dose level, study doses mg
# [4] = Mean AUC (0-t) of simvastatin following administration of simvastatin 80 mg orally disintegrating tablet in healthy human; type: ADME, organism-based; settings: plasma, po
# [5] = Mean elimination half-life of simvastatin following administration of simvastatin 80 mg orally disintegrating tablet in healthy human; type: ADME, organism-based; settings: plasma, po
# [6] = Mean Cmax of simvastatin following administration of simvastatin 80 mg orally disintegrating tablet in healthy human; type: ADME, organism-based; settings: plasma, po
# [7] = Mean elimination rate constant of simvastatin following administration of reference product Zocor 80 mg tablet in healthy human; type: ADME, organism-based; settings: plasma, po
# [8] = AUC of total HMG-CoA reductase inhibitor (both lactone and open acid) following administration of simvastatin tablet at 160 mg dose level in hypercholesterolemic patients; type: ADME, organism-based, Plasma; settings: human, in vivo, po
# Canis lupus familiaris [9] = test: Plasma protein binding of simvastatin following oral dose of simvastatin at 2 mg.Kg-1 level in dog; type: organism-based; set-up: dose 2 mg.Kg-1, dosed compound id 2.4681e+06, dosed compound name, dose level, study doses mg.Kg-1
# [10] = Cmax of total HMG-CoA reductase inhibitor (both lactone and open acid) following administration of simvastatin tablet at 160 mg dose level in hypercholesterolemic patients; type: ADME, organism-based, Plasma; settings: human, in vivo, po
# [11] = Mean AUC (0-infinity) of simvastatin following administration of reference product Zocor 80 mg tablet in healthy human; type: ADME, organism-based; settings: plasma, po, read-out: AUC (0-infinity)
# [12] = AUC of total HMG-CoA reductase inhibitor (both lactone and open acid) following administration of simvastatin tablet at 40 mg dose level in hypercholesterolemic patients; type: ADME, organism-based, Plasma; settings: human, in vivo, po
# [13] = Absorption of simvastatin following oral administration of simvastatin in rat; type: ADME, organism-based; settings: in vivo
# [14] = Mean AUC (0-t) of simvastatin following administration of reference product Zocor 80 mg tablet in healthy human; type: ADME, organism-based; settings: plasma, po
# [15] = Mean elimination rate constant of simvastatin following administration of simvastatin 80 mg orally disintegrating tablet in healthy human; type: ADME, organism-based; settings: plasma, po
# [16] = Cmax of total HMG-CoA reductase inhibitor (both lactone and open acid) following administration of simvastatin tablet at 40 mg dose level in hypercholesterolemic patients; type: ADME, organism-based, Plasma; settings: human, in vivo, po
# [17] = Cmax of total HMG-CoA reductase inhibitor (both lactone and open acid) following administration of simvastatin tablet at 80 mg dose level in hypercholesterolemic patients; type: ADME, organism-based, Plasma; settings: human, in vivo, po
# [18] = Mean Cmax of simvastatin following administration of reference product Zocor 80 mg tablet in healthy human; type: ADME, organism-based; settings: plasma, po
# [19] = Absorption of simvastatin following oral administration of simvastatin in dog; type: ADME, organism-based, Canis lupus familiaris; settings: in vivo
# [20] = Mean AUC (0-infinity) of simvastatin following administration of simvastatin 80 mg orally disintegrating tablet in healthy human; type: ADME, organism-based; settings: plasma, po, read-out: AUC (0-infinity)
# [21] = AUC of total HMG-CoA reductase inhibitor (both lactone and open acid) following administration of simvastatin tablet at 80 mg dose level in hypercholesterolemic patients; type: ADME, organism-based, Plasma; settings: human, in vivo, po
# [22] = Hepatic extraction of active beta-hydroxy acid form of simvastatin following oral administration of simvastatin in human; type: ADME, organism-based, Liver; settings: in vivo
# [23] = Hepatic extraction of active beta-hydroxy acid form of simvastatin following oral administration of simvastatin in rat; type: ADME, organism-based, Liver; settings: in vivo
# [24] = Mean Tmax of simvastatin acid following administration of reference product Zocor 80 mg tablet in healthy human; type: ADME, organism-based, Plasma; settings: in vivo, po
# [25] = Mean AUC (0-t) of simvastatin acid following administration of simvastatin 80 mg orally disintegrating tablet in healthy human; type: ADME, organism-based, Plasma; settings: in vivo, po
# [26] = Mean Tmax of simvastatin acid following administration of simvastatin 80 mg orally disintegrating tablet in healthy human; type: ADME, organism-based, Plasma; settings: in vivo, po
# [27] = Tmax of active HMG-CoA reductase inhibitor L-654,969 following administration of simvastatin tablet at 80 mg dose level in hypercholesterolemic patients; type: ADME, organism-based, Plasma; settings: human, in vivo, po
# [28] = Extrahepatic tissue penetration of active beta-hydroxy acid form of simvastatin following oral administration of simvastatin in human; type: ADME, organism-based; settings: in vivo
# [29] = AUC of active HMG-CoA reductase inhibitor L-654,969 following administration of simvastatin tablet at 160 mg dose level in hypercholesterolemic patients; type: ADME, organism-based, Plasma; settings: human, in vivo, po
# [30] = Extrahepatic tissue penetration of active beta-hydroxy acid form of simvastatin following oral administration of simvastatin in rat; type: ADME, organism-based; settings: in vivo
# [31] = Tmax of active HMG-CoA reductase inhibitor L-654,969 following administration of simvastatin tablet at 40 mg dose level in hypercholesterolemic patients; type: ADME, organism-based, Plasma; settings: human, in vivo, po
# Homo sapiens [32] = test: Plasma protein binding of simvastatin acid following oral dose of simvastatin at […] level in human; type: organism-based; set-up: dose 40 mg, dosed compound id 2.4681e+06, dosed compound name, dose level, study doses mg
# Canis lupus familiaris [33] = test: Plasma protein binding of simvastatin acid following oral dose of simvastatin at 2 mg.Kg-1 level in dog; type: organism-based; set-up: dose 2 mg.Kg-1, dosed compound id 2.4681e+06, dosed compound name, dose level, study doses mg.Kg-1
# [34] = Mean AUC (0-infinity) of simvastatin acid following administration of reference product Zocor 80 mg tablet in healthy human; type: ADME, organism-based, Plasma; settings: in vivo, po
# [35] = AUC of active HMG-CoA reductase inhibitor L-654,969 following administration of simvastatin tablet at 80 mg dose level in hypercholesterolemic patients; type: ADME, organism-based, Plasma; settings: human, in vivo, po
# [36] = Bioavailability of active beta-hydroxy acid form of simvastatin following oral administration of simvastatin in dog; type: ADME, organism-based, Canis lupus familiaris; settings: in vivo
# [37] = Mean Cmax of simvastatin acid following administration of simvastatin 80 mg orally disintegrating tablet in healthy human; type: ADME, organism-based, Plasma; settings: in vivo, po
# [38] = Tmax of active HMG-CoA reductase inhibitor L-654,969 following administration of simvastatin tablet at 160 mg dose level in hypercholesterolemic patients; type: ADME, organism-based, Plasma; settings: human, in vivo, po
# [39] = Extensive biliary excretion of active beta-hydroxy acid form of simvastatin following oral administration of simvastatin in human; type: ADME, organism-based, Bile; settings: in vivo
# [40] = Cmax of active HMG-CoA reductase inhibitor L-654,969 following administration of simvastatin tablet at 160 mg dose level in hypercholesterolemic patients; type: ADME, organism-based, Plasma; settings: human, in vivo, po
# [41] = Mean AUC (0-infinity) of simvastatin acid following administration of simvastatin 80 mg orally disintegrating tablet in healthy human; type: ADME, organism-based, Plasma; settings: in vivo, po
# [42] = Mean elimination half-life of simvastatin acid following administration of simvastatin 80 mg orally disintegrating tablet in healthy human; type: ADME, organism-based, Plasma; settings: in vivo, po
# [43] = Mean elimination rate constant of simvastatin acid following administration of reference product Zocor 80 mg tablet in healthy human; type: ADME, organism-based, Plasma; settings: in vivo, po
# [44] = Mean elimination half-life of simvastatin acid following administration of reference product Zocor 80 mg tablet in healthy human; type: ADME, organism-based, Plasma; settings: in vivo, po
# [45] = Cmax of active HMG-CoA reductase inhibitor L-654,969 following administration of simvastatin tablet at 40 mg dose level in hypercholesterolemic patients; type: ADME, organism-based, Plasma; settings: human, in vivo, po
# [46] = Cmax of active HMG-CoA reductase inhibitor L-654,969 following administration of simvastatin tablet at 80 mg dose level in hypercholesterolemic patients; type: ADME, organism-based, Plasma; settings: human, in vivo, po
# [47] = Hepatic extraction of active beta-hydroxy acid form of simvastatin following oral administration of simvastatin in dog; type: ADME, organism-based, Canis lupus familiaris, Liver; settings: in vivo
# [48] = Mean elimination rate constant of simvastatin acid following administration of simvastatin 80 mg orally disintegrating tablet in healthy human; type: ADME, organism-based, Plasma; settings: in vivo, po
# [49] = Extensive biliary excretion of active beta-hydroxy acid form of simvastatin following oral administration of simvastatin in dog; type: ADME, organism-based, Canis lupus familiaris, Bile; settings: in vivo
# [50] = Mean AUC (0-t) of simvastatin acid following administration of reference product Zocor 80 mg tablet in healthy human; type: ADME, organism-based, Plasma; settings: in vivo, po
# [51] = Bioavailability of active beta-hydroxy acid form of simvastatin following oral administration of simvastatin in human; type: ADME, organism-based; settings: in vivo
# [52] = Extensive biliary excretion of active beta-hydroxy acid form of simvastatin following oral administration of simvastatin in rat; type: ADME, organism-based, Bile; settings: in vivo
# [53] = Extrahepatic tissue penetration of active beta-hydroxy acid form of simvastatin following oral administration of simvastatin in dog; type: ADME, organism-based, Canis lupus familiaris; settings: in vivo
# [54] = Mean Cmax of simvastatin acid following administration of reference product Zocor 80 mg tablet in healthy human; type: ADME, organism-based, Plasma; settings: in vivo, po
# [55] = Bioavailability of active beta-hydroxy acid form of simvastatin following oral administration of simvastatin in rat; type: ADME, organism-based; settings: in vivo
# [56] = AUC of active HMG-CoA reductase inhibitor L-654,969 following administration of simvastatin tablet at 40 mg dose level in hypercholesterolemic patients; type: ADME, organism-based, Plasma; settings: human, in vivo, po
structure (smiles),measurement,setting,value
CCC(C)(C)C(=O)O[C@H]1C[C@@H](C)C=C2C=C[C@H](C)[C@H](CC[C@@H]3C[C@@H](O)CC(=O)O3)[C@H]21 [SIMVASTATIN],half-life,[1],10.1 h
same,Absorption,[2],Simvastatin is well absorbed in humans
same,PPB,Homo sapiens [3],97%
same,AUC(0-t),[4],77.6 ng·h/mL
same,half-life,[5],9.39 h
same,Cmax,[6],18.3 ng/mL
same,k el,[7],3.02e-05 s⁻¹
same,AUC,[8],1533 ng.eq.h.ml-1
same,PPB,Canis lupus familiaris [9],97%
same,Cmax,[10],404 ng.eq.ml-1
same,AUC(0-inf),[11],102 ng·h/mL
same,AUC,[12],316 ng.eq.h.ml-1
same,Absorption,[13],Simvastatin is well absorbed in rats
same,AUC(0-t),[14],83.9 ng·h/mL
same,k el,[15],4.16e-05 s⁻¹
same,Cmax,[16],75 ng.eq.ml-1
same,Cmax,[17],165 ng.eq.ml-1
same,Cmax,[18],19.4 ng/mL
same,Absorption,[19],Simvastatin is well absorbed in dogs
same,AUC(0-inf),[20],98.5 ng·h/mL
same,AUC,[21],636 ng.eq.h.ml-1
CCC(C)(C)C(=O)O[C@H]1C[C@@H](C)C=C2C=C[C@H](C)[C@H](CC[C@@H](O)C[C@@H](O)CC(=O)O)[C@H]21 [TENIVASTATIN],Hepatic extraction,[22],VALUE = Hepatic extraction of active beta-hydroxyacid form of simvastatin is high
same,Hepatic extraction,[23],VALUE = Hepatic extraction of active beta-hydroxyacid form of simvastatin is high
same,Tmax,[24],4.35 h
same,AUC(0-t),[25],37.67 ng·h/mL
same,Tmax,[26],4.42 h
same,Tmax,[27],1.8 h
same,Compound recovery,[28],VALUE = Extrahepatic tissue penetration of active beta-hydroxyacid form of simvastatin is relatively poor
same,AUC,[29],668 ng.eq.h.ml-1
same,Compound recovery,[30],VALUE = Extrahepatic tissue penetration of active beta-hydroxyacid form of simvastatin is relatively poor
same,Tmax,[31],1.8 h
same,PPB,Homo sapiens [32],93%
same,PPB,Canis lupus familiaris [33],93%
same,AUC (0-infinity),[34],47.76 ng·h/mL
same,AUC,[35],263 ng.eq.h.ml-1
same,F,[36],The active beta-hydroxyacid form of simvastatin is poorly bioavailable in dogs
same,Cmax,[37],4.5 ng/mL
same,Tmax,[38],1.8 h
same,Compound recovery,[39],"OUTCOME = Observed, VALUE = Biliary excretion of active beta-hydroxyacid form of simvastatin is extensive"
same,Cmax,[40],138 ng.eq.ml-1
same,AUC (0-infinity),[41],41.54 ng·h/mL
same,t1/2,[42],5.95 h
same,Kel,[43],0.1357 h⁻¹
same,t1/2,[44],8.67 h
same,Cmax,[45],21 ng.eq.ml-1
same,Cmax,[46],50 ng.eq.ml-1
same,Hepatic extraction,[47],VALUE = Hepatic extraction of active beta-hydroxyacid form of simvastatin is high
same,Kel,[48],0.1554 h⁻¹
same,Compound recovery,[49],"OUTCOME = Observed, VALUE = Biliary excretion of active beta-hydroxyacid form of simvastatin is extensive"
same,AUC(0-t),[50],36.61 ng·h/mL
same,F,[51],The active beta-hydroxyacid form of simvastatin is poorly bioavailable in humans
same,Compound recovery,[52],"OUTCOME = Observed, VALUE = Biliary excretion of active beta-hydroxyacid form of simvastatin is extensive"
same,Compound recovery,[53],VALUE = Extrahepatic tissue penetration of active beta-hydroxyacid form of simvastatin is relatively poor
same,Cmax,[54],3.88 ng/mL
same,F,[55],The active beta-hydroxyacid form of simvastatin is poorly bioavailable in rats
same,AUC,[56],120 ng.eq.h.ml-1

# Source: ChEMBL document CHEMBL3508574 (2016)
